From paper PMC5831633 (PLoS ONE, 2018)
Structures can show the parent of a compound that is named as a salt.

Tests used:
N1 and N2 sialidases = conditions: cited from earlier work
[1] = target: N2 neuraminidase (A/Chicken/HongKong/G9/1997 H9N2) (Influenza A virus, UniProt Q80H78); assay type: biochemical; conditions: pH 6.5; read-out: Km for the MUNANA substrate
[2] = target: N1 wild-type neuraminidase (A/Anhui/1/2005 H5N1) (Influenza A virus, UniProt A0A0C5AGB3); assay type: biochemical; conditions: pH 6.5; read-out: Km for the MUNANA substrate

In the case of `CCC(CC)OC1C(NC(C)=O)C(NCc2ccc(-c3ccccc3)cc2)C2C(C(=O)O)C12` (stereo not drawn) [Compound 4a], the IC50 (N1 and N2 sialidases) is listed as 10 µM.
With `CC(=O)N[C@H]1[C@H]([C@H](O)[C@H](O)CO)OC(Oc2ccc3c(C)cc(=O)oc3c2)(C(=O)O)C[C@@H]1O` (stereo partly drawn) [MUNANA, 2-(4-methylumbelliferyl) α-D-acetylneuraminic acid sodium salt hydrate] the Km [1] was 70 ± 6.8 µM and the Km [2] was 12.8 ± 1.9 µM.
